Starred links: 1 amine or outer side, 2 acyl side, 3 side chain; linkers in the order of their positions; H or OH if unused. Positions of bridges follow the written chain, without caps; N, C: chain ends. Non-standard residues stand in square brackets, D forms with d. Residues, ends and D or L forms follow the SMILES beside them. *: point of attachment. pTerphenylCO(4''-OnC5H11) = CCCCCOc1ccc(-c2ccc(-c3ccc(C(=O)*)cc3)cc2)cc1; Orn(4R-OH,5R-OH) = O=C([C@H](C[C@@H](O)[C@@H](O)N[*:3])N[*:1])[*:2]; hTyr(3S-OH,4S-OH) = N[C@H](C(=O)O)[C@H](O)[C@@H](O)c1ccc(O)cc1; Pro(3S-OH,4S-Me) = C[C@H]1CN[C@H](C(=O)O)[C@H]1O; Hyp = O=C(O)[C@@H]1C[C@@H](O)CN1
Experiments:
[1] = Mouse pharmacokinetics, i.v. bolus; settings: in vivo, iv, male ICR (CD-1) mice, single 1 mg/kg slow i.v. bolus, plasma, LC-MS/MS, noncompartmental from mean profile, n = 3/time point
Description: A single 1-mg/kg dose of CD101 or anidulafungin was administered by slow i.v. bolus (∼2 min) to male ICR (CD-1) mice (n = 3/group/time point). Blood samples (via cardiac puncture) were collected for plasma processing predose and at 0.083 (5 min), 0.5, 1, 4, 8, 24, 48, and 72 h postdose. PK profiles were generated based on mean results from the three animals sampled at each time point. In another study, a single 1-, 4-, or 16-mg/kg dose of CD101 was administered by i.p. injection to female ICR (CD-1) mice (n = 3/time point/dose), and blood samples (via cardiac puncture) were drawn for plasma processing at 1, 3, 6, 12, 24, 48, 72, and 96 h postdose.
(§1) For each of the pharmacokinetic studies, whole-blood samples (K3EDTA as anticoagulant) were collected and centrifuged within 30 min of collection. The resulting plasma was harvested and stored at −20°C until analysis. Tissue samples were homogenized by a bead-based homogenizer following the addition of deionized water to excised tissue in a 2:1 (vol/wt) ratio and stored at −20°C until analysis. Prior to analysis, plasma or homogenized tissue samples were quenched with acetonitrile (3:1, acetonitrile-plasma or tissue ratio) containing an appropriate internal standard (isotopically labeled d9-CD101 [mouse and rat] or a structural analog [dog, monkey, and chimpanzee]). Plasma and tissue homogenate concentrations (quantified against calibration standards processed the same way) were determined by reverse-phase, gradient liquid chromatography with tandem mass spectrometric detection (LC-MS/MS) using an AB-SCIEX API 3200Q/4000 mass spectrometry system. Calibration standard ranges were the following: 0.400 (lower limit of quantitation, [LLOQ]) to 200 μg/ml (CD101, mouse), 0.040 (LLOQ) to 10 μg/ml (anidulafungin, mouse), 0.002 (LLOQ) to 10 μg/ml (CD101, rat), 0.005 (LLOQ) to 10 μg/ml (anidulafungin, rat), 0.050 (LLOQ) to 10 μg/ml (CD101, dog), 0.020 (LLOQ) to 10 μg/ml (anidulafungin, dog), 0.010 (LLOQ) to 10 μg/ml (CD101, monkey), 0.001 (LLOQ) to 10 μg/ml (anidulafungin, monkey), 0.015 (LLOQ) to 10 μg/ml (CD101, chimpanzee), and 0.015 (LLOQ) to 10 μg/ml (anidulafungin, chimpanzee). When necessary, dilutions with blank matrix were made for samples that quantified above the upper limit of quantitation. The methods used in the analysis were qualified as fit for purpose: calibration standards were matrix matched with the exception that human plasma calibration standards were used to analyze chimpanzee plasma samples due to the rarity of blank chimpanzee plasma, and, for each analytical batch, triplicate calibration standards were included at the beginning, approximately in the middle, and at the end of the batch. Following analysis, quantitation was carried out by a calibration curve comprising the analyte/internal standard area ratio versus concentration. Analytical batch acceptance followed the general guidance that triplicate standards/quality controls be within ±20% for accuracy (percentage of nominal concentration) and ≤20% for precision (percent coefficient of variation).
(§2) Pharmacokinetic parameters were calculated by noncompartmental analysis using Phoenix WinNonlin (version 6.3; Pharsight, Mountain View, CA) from either individual or mean (mouse) concentration-time profiles. An unpaired t test was used to compare mean exposures from male and female rats.

[2] = Cynomolgus monkey pharmacokinetics, i.v. bolus; set-up: species or system cynomolgus monkeys; settings: in vivo, iv, cynomolgus monkeys, single 2.8 mg/kg slow i.v. bolus, plasma, LC-MS/MS, n = 3
Description: A single dose of 2.13 mg/kg CD101 or 2.8 mg/kg anidulafungin was administered by slow i.v. bolus (∼10 min) to cynomolgus monkeys (n = 3/group), and blood samples (via peripheral vein) were drawn for plasma processing at 0.167, 0.5, 1, 3, 8, 12, 24, 48, and 72 h postdose.
as §1, §2

[3] = Chimpanzee pharmacokinetics, i.v. infusion; assay type: in vivo, chimpanzees; settings: in vivo, iv, female chimpanzees, single 1 mg/kg i.v. infusion (1 h), plasma, LC-MS/MS, noncompartmental, n = 2
Description: A single 1-mg/kg dose of CD101 or anidulafungin was administered by i.v. infusion (1 h) to female chimpanzees (n = 2/group), and blood samples (via peripheral vein) were drawn for plasma processing at the midpoint of infusion, at the end of infusion, at 2, 4, 8, 12, 24, 48, and 72 h postdose, and on days 5, 7, and 10 postdose.
as §1, §2

[4] = radiolabeled drug, bile duct-cannulated rats, ref [14], cited from earlier work
Description: In that study, which utilized radiolabeled anidulafungin in bile duct-cannulated rats, 94.8% of the radioactive dose was accounted for through 168 h (or 7 days). […] In a similar study of CD101 conducted with nonradiolabeled material, no biotransformati ...

[5] = ref [13]; cited from earlier work
Text: In the case of brain concentrations, there was little difference across all the collection intervals. Given the relatively low concentrations and small differences across times, measured concentrations may reflect contamination from residual whole blood during the collec ...

[6] = for CD101 the effective half-life (covers the majority of the AUC), ref [10]; cited from earlier work
Description: The half-life of CD101 in human is about 3-fold longer (about 90 h) than that of anidulafungin (about 30 h) ([10]). It should be noted that 90 h is the effective half-life of CD101 (i.e., the half-life that covers the majority of the AUC), with a longer, later-phase half-life evident at lower concentration ...

Molecule | half-life [1] | clearance ([1]; read-out: CL (clearance)) | half-life [2] | half-life [3] | clearance ([3]; read-out: CL (clearance)) | radioactive dose accounted for ([4]; through 168 h (7 days)) | drug-derived radioactivity recovered in bile, % of dose ([4]; through 168 h) | drug-derived radioactivity recovered in carcass, % of dose ([4]; through 168 h) | drug-derived radioactivity recovered in feces, % of dose ([4]; through 168 h) | radioactivity recovered in urine ([4]; through 168 h) | Tissue/plasma AUC ratio, kidney [5] | Tissue/plasma AUC ratio, liver [5] | Tissue/plasma AUC ratio, lung [5] | half-life in human [6]
CCCCCOc1ccc(-c2ccc(-c3ccc(C(=O)N[C@H]4C[C@@H](O)[C@@H](O)NC(=O)[C@@H]5[C@@H](O)[C@@H](C)CN5C(=O)[C@H]([C@@H](C)O)NC(=O)[C@H]([C@H](O)[C@@H](O)c5ccc(O)cc5)NC(=O)[C@@H]5C[C@@H](O)CN5C(=O)[C@H]([C@@H](C)O)NC4=O)cc3)cc2)cc1 [anidulafungin] ({pTerphenylCO(4''-OnC5H11)}-[Orn(4R-OH,5R-OH)]T[Hyp][hTyr(3S-OH,4S-OH)]T[Pro(3S-OH,4S-Me)]; lactam 1-C) | 19 h | 0.21 mL/min/kg | 8 h | 30 h | 0.42 mL/min/kg | 94.8% | 33.9% | 40.4% | 17.1% | 2.94% | 10.7 | 12.4 | 10.4 | about 30 h
caspofungin |  |  |  |  |  |  |  |  |  |  | 5.5 | 10.2 | 1.2 | 
micafungin |  |  |  |  |  |  |  |  |  |  | 3.2 | 7.8 | 3.6 | 

Reference: publication PMC5365648, “Pharmacokinetics of the Novel Echinocandin CD101 in Multiple Animal Species” (Antimicrobial Agents and Chemotherapy, 2017)
